# The Kinase Knowledgebase extract (Sharma et al. 2016)
# Biological target: CDK2 (human) (UniProt P24941)
# Experiment: Enzyme Assay
# Conditions: not given
row,IC50 [nM],Structure (SMILES)
1,55,NS(=O)(=O)c1ccc(N/C=C2\C(=O)Nc3ncc(Br)cc32)cc1
2,5500,O=C1Nc2ncc(-c3ccco3)cc2/C1=C/Nc1ccc2cn[nH]c2c1
3,550,O=C1Nc2nc(Cl)ccc2/C1=C/Nc1ccc2cn[nH]c2c1
4,55,O=C1Nc2ncc(Br)cc2/C1=C/Nc1ccc2ncccc2c1
5,550,NS(=O)(=O)c1ccc(N/C=C2\C(=O)Nc3ncc(-c4ccsc4)cc32)cc1
6,75,O=C1Nc2ccc3ccncc3c2/C1=C/Nc1ccc(CCO)cc1
7,550,CCOC(=O)c1cnc2c(c1)/C(=C/Nc1ccc3ncccc3c1)C(=O)N2
8,5500,NS(=O)(=O)c1ccc(N/C=C2\C(=O)Nc3ncc(-c4ccccc4)cc32)cc1
9,550,NS(=O)(=O)c1ccc(N/C=C2\C(=O)Nc3nc(Cl)ccc32)cc1
10,55,NS(=O)(=O)c1ccc(N/C=C2\C(=O)Nc3ncc(-c4ccco4)cc32)cc1
11,30,O=C1Nc2ccc3ccncc3c2/C1=C/Nc1ccc(Cc2ccncc2)cc1
12,55,CCOC(=O)c1cnc2c(c1)/C(=C/Nc1ccc3cn[nH]c3c1)C(=O)N2
13,550,NS(=O)(=O)c1ccc(N/C=C2\C(=O)Nc3ncccc32)cc1
14,55,O=C1Nc2ncc(Br)cc2/C1=C/Nc1ccc2cn[nH]c2c1
15,55,CCOC(=O)c1cnc2c(c1)/C(=C/Nc1ccc(S(N)(=O)=O)cc1)C(=O)N2
16,30,Cc1cc(=O)[nH]n1-c1ccc(N/C=C2\C(=O)Nc3ccc4ncsc4c32)cc1
17,550,O=C1Nc2ncc(-c3ccsc3)cc2/C1=C/Nc1ccc2cn[nH]c2c1
18,55,NS(=O)(=O)c1ccc(N/C=C2\C(=O)Nc3cnccc32)cc1
19,55,NS(=O)(=O)c1ccc(N/C=C2/C(=O)Nc3ccncc32)cc1.NS(=O)(=O)c1ccc(N/C=C2\C(=O)Nc3ccncc32)cc1
20,> 100,O=C1Nc2ccc3ccncc3c2/C1=C/Nc1ccc(N2CCOCC2)cc1

row,Structure (SMILES),IC50 [nM]
1,NC(=O)c1ccc(N/C=C2\C(=O)Nc3ccc4ncsc4c32)cc1,75

# Biological target: CDK2 (human) (UniProt P24941)
# Experiment: Cell-Based Assay
# Conditions: rko
row,IC50 [nM],Structure (SMILES)
1,350,NS(=O)(=O)c1ccc(NN=C2C(=O)Nc3ccc(-c4cnco4)cc32)cc1

# Biological target: CDK2 (human) (UniProt P24941)
# Experiment: Cell-Based Assay
# Conditions: hdf-3
row,IC50 [nM],Structure (SMILES)
1,350,NS(=O)(=O)c1ccc(NN=C2C(=O)Nc3ccc(-c4cnco4)cc32)cc1

# Same assay, conditions: mda-mb-468
row,IC50 [nM],Structure (SMILES)
1,350,NS(=O)(=O)c1ccc(NN=C2C(=O)Nc3ccc(-c4cnco4)cc32)cc1
2,> 5000,CN(C)S(=O)(=O)c1ccc(N/C=C2\C(=O)Nc3ccc(-c4cnco4)cc32)cc1
3,300,CNS(=O)(=O)Cc1ccc(NN=C2C(=O)Nc3cc(C)c(O)c(C)c32)cc1

# Same assay, conditions: rko
row,IC50 [nM],Structure (SMILES)
1,350,NS(=O)(=O)c1ccc(NN=C2C(=O)Nc3ccc(-c4cnco4)cc32)cc1
